Laboratory results from patent US9963451B2, “Fused ring pyrimidine compound and pest control agent containing the same” (Mitsui Chemicals Agro, Inc., priority 2013, dated 2018).

Experiments:
Type in all cases: in vivo
Myzus persicae = test: Test Example 12: insecticidal test against Myzus persicae (leaf spray on young white radish plant, single and combined chemicals); conditions: after 5 days
Protocol: Insecticidal Test Against Myzus persicae
A chemical solution which has been diluted to have a pre-determined concentration was sprayed on a leaf part of young white radish plant having 1-stage larvae Myzus persicae present thereon. After air drying, they were left to stand in an incubator at 25° C. and the numbers of living insects and dead insects were examined after 5 days (2 series). Meanwhile, in Table 32, when combination of two types of test chemicals are used (i.e., A and B), the combination of the two types was described as A+B, and in the concentration column (ppm), it was described as concentration of A+concentration of B.

Nilaparvata lugens [1] = test: Test Example 3: insecticidal test against Nilaparvata lugens (spray on young rice plant); conditions: after 6 days
Protocol: Insecticidal Test Against Nilaparvata lugens
2.5 ml of acetone solution prepared to have the test compound at the pre-determined concentration described in the following Table 28 was sprayed to young rice plant followed by air drying. Then, it was added to a glass bottle (diameter of 3 cm and height of 13 cm) added with water. Ten sensitive Nilaparvata lugens (3-stage) were released therein, and then the bottle was covered with a cap. After keeping them in an incubator at 25° C., the numbers of living insects and dead insects were determined after 6 days (two series). Meanwhile, as a comparative compound, imidacloprid was used.

Laodelphax striatellus [2] = test: whole plant or invertebrate; conditions: Laodelphax striatellus, in Oryza sativa, 144 h, read-out: Insect death ratio (%)
Protocol: (§1) Insecticidal Test Against Laodelphax striatellus
A chemical solution diluted to have a pre-determined concentration was sprayed to young rice plant (breed: Koshihikari) followed by air drying. Then, it was added to a glass test tube (diameter of 3 cm and height of 10 cm) added with water together with ten 3-stage larvae of Laodelphax striatellus. The tube was then covered. The number of living insects was determined after 6 days and the dead insect ratio was calculated. There were two series, i.e., 10 insects per group. Meanwhile, in Table 29, when combination of two types of test chemicals are used (i.e., A and B), the combination of the two types was described as A+B, and in the concentration column (ppm), it was described as concentration of A+concentration of B.

Nilaparvata lugens [3] = test: Test Example 3: insecticidal test against Nilaparvata lugens (spray on young rice plant); conditions: after 6 days; remark: listed apart in the source
Chilo suppressalis = test: Test Example 10: insecticidal test against Chilo suppressalis (rice stem dip, single and combined chemicals); conditions: Chilo suppressalis, 144 h; 100 ppm, after 6 days; read-out: Insect death ratio (%)
Protocol: Insecticidal Test Against Chilo suppressalis
A stem part was cut from a rice plant (breed: Koshihikari) cultivated in water and it was immersed in a chemical solution which has been diluted to have a pre-determined concentration. After air drying, it was put into a 9 cm polyethylene cup having a water-wetted filter paper laid on the bottom thereof, and 3-stage larvae of Chilo suppressalis were released and covered. They were left to stand in an incubator at 25° C., and the numbers of living insects and dead insects were examined after 6 days. There were two series, i.e., 5 insects per group. Meanwhile, in Table 30, when combination of two types of test chemicals are used (i.e., A and B), the combination of the two types was described as A+B, and in the concentration column (ppm), it was described as concentration of A+concentration of B.

Pyricularia oryzae = test: whole plant or invertebrate; conditions: Pyricularia oryzae, 168 h, read-out: Rice blast control value
Nilaparvata lugens [4] = test: Test Example 13: insecticidal test against Nilaparvata lugens using paddy field rice cultivating box (granule treatment); conditions: for Adult insect death ratio (%): adults released 22 days after treatment, after 5 days; for Number of larvaes (number of insects): next generation larvae after 22 days
Protocol: Insecticidal Test Against Nilaparvata lugens Using Paddy Field Rice Cultivating Box
A rice plant (breed: Koshihikari) cultivated in cultivating box was treated with granules with a pre-determined chemical amount, and it was transplanted in two pots, i.e., four plants per 1/5000a pot. Twenty-two days after the treatment, 10 female adults of Nilaparvata lugens were released and the young plants were covered with a mesh. Then, the insect death ratio was determined after 5 days. In addition, the number of the next generation larvae was determined after 22 days. There were two series. Meanwhile, in Table 33, when combination of two types of test chemicals (i.e., A and B), the combination of the two types was described as A+B, and in the chemical amount column (g a.i./box), it was described as chemical amount of A+chemical amount of B.

Laodelphax striatellus [5] = test: Test Example 14: insecticidal test against Laodelphax striatellus (spray on young rice plant, comparison with Reference Examples 3 and 4); conditions: after 6 days
Protocol: as §1
A young rice plant (breed: Koshihikari) was sprayed with a chemical solution which has been diluted to a pre-determined concentration followed by air drying. Then, it was added to a glass test tube (diameter of 3 cm and height of 10 cm) added with water, together with ten Laodelphax striatellus larvae (3-stage), and then the tube was covered with a cap. The number of dead insects was determined after 6 days and the insect death ratio was calculated. There were two series, i.e., 10 insects per group.
Meanwhile, as a comparative compound, Reference Example 3 disclosed in the pamphlet of International Publication No. 2013/144088 and Reference Example 4 with C═O position different from the present compound were used.

## CN1COCN(Cc2cnc(Cl)s2)/C1=N\[N+](=O)[O-] [Thiamethoxam, thiamethoxam]
Myzus persicae; 1 ppm
  Insect death ratio (%): 94%

## lepimectin
Myzus persicae; 10 ppm
  Insect death ratio (%): 88%

## O=[N+]([O-])NC1=NCCN1Cc1ccc(Cl)nc1 [Imidacloprid, imidacloprid, reference compound]
Nilaparvata lugens [1]; 10 ppm spray
  Sensitive insect death ratio (%): 100%
Nilaparvata lugens [1]; 100 ppm spray
  Sensitive insect death ratio (%): 100%
Laodelphax striatellus [2]; 0.1 ppm, after 6 days
  pest or weed control at 0.1 ppm: 30%
Myzus persicae; 1 ppm
  Insect death ratio (%): 100%
Nilaparvata lugens [3]; 10 ppm spray
  Resistant insect death ratio (%): 21.7%
Nilaparvata lugens [3]; 100 ppm spray
  Resistant insect death ratio (%): 50.4%

## N#CCNC(=O)c1cnccc1C(F)(F)F [Flonicamid, flonicamid]
Myzus persicae; 1 ppm
  Insect death ratio (%): 79%

## CN/C(=N/CC1CCOC1)N[N+](=O)[O-] (stereo not shown) [Dinotefuran, dinotefuran]
Laodelphax striatellus [2]
  pest or weed control at 1 ppm: 45%
Myzus persicae; 10 ppm
  Insect death ratio (%): 75%

## CC(C)CC(C)c1sccc1NC(=O)c1cn(C)nc1C(F)(F)F (stereo not shown) [Penthiopyrad, penthiopyrad]
Myzus persicae; 100 ppm
  Insect death ratio (%): 13%

## CSc1cc2n(Cc3ccc(Cl)nc3)c(C)cc(=O)n2n1 [compound 154, 4-((6-chloropyridin-3-yl)methyl)-5-methyl-2-(methylthio)-pyrazolo[1,5-a]pyrimidin-7(4H)-one]
Nilaparvata lugens [1]; 10 ppm spray
  Sensitive insect death ratio (%): 100%
Nilaparvata lugens [1]; 100 ppm spray
  Sensitive insect death ratio (%): 100%
Laodelphax striatellus [2]; after 6 days
  pest or weed control at 3 ppm: 40%
Chilo suppressalis
  pest or weed control at 100 ppm: 0%
Pyricularia oryzae
  pest or weed control at 100 ppm: 0%
Myzus persicae; 10 ppm
  Insect death ratio (%): 70%
Nilaparvata lugens [4]; 2 g a.i./box granules
  Adult insect death ratio (%): 90%
  Number of larvaes (number of insects): 0 number of insects
Laodelphax striatellus [5]; 10 ppm
  Insect death ratio (%): 100%
Nilaparvata lugens [3]; 10 ppm spray
  Resistant insect death ratio (%): 100%
Nilaparvata lugens [3]; 100 ppm spray
  Resistant insect death ratio (%): 100%

## C[Si](C)(C)CC(O)(Cn1cncn1)c1ccc(F)cc1 (stereo not shown) [Simeconazole, simeconazole, reference compound]
Nilaparvata lugens [4]; 2.25 g a.i./box granules
  Adult insect death ratio (%): 20%
  Number of larvaes (number of insects): 69 number of insects

## CC(=O)N1C(=O)N(NCc2cccnc2)Cc2cc(C(F)(C(F)(F)F)C(F)(F)F)ccc21 [Pyrifluquinazon, pyrifluquinazon]
Myzus persicae; 1 ppm
  Insect death ratio (%): 100%

## CSc1nc2n(Cc3ccc(Cl)nc3)c(=O)cc(C)n2n1 [Reference Example 4, 4-((6-chloropyridin-3-yl)methyl)-7-methyl-2-(methylthio)-[1,2,4]triazolo[1,5-a]pyrimidin-5(4H)-one, reference compound]
Laodelphax striatellus [5]; 1000 ppm
  Insect death ratio (%): 40%

## CSc1nc2n(Cc3ccc(Cl)nc3)c(C)cc(=O)n2n1 [compound 5, 4-((6-chloropyridin-3-yl)methyl)-5-methyl-2-(methylthio)-[1,2,4]triazolo[1,5-a]pyrimidin-7(4H)-one]
Nilaparvata lugens [1]; 10 ppm spray
  Sensitive insect death ratio (%): 100%
Nilaparvata lugens [1]; 100 ppm spray
  Sensitive insect death ratio (%): 100%
Laodelphax striatellus [2]; after 6 days
  pest or weed control at 3 ppm: 20%
Chilo suppressalis
  pest or weed control at 100 ppm: 0%
Pyricularia oryzae
  pest or weed control at 100 ppm: 0%
Myzus persicae; 100 ppm
  Insect death ratio (%): 73%
Laodelphax striatellus [5]; 10 ppm
  Insect death ratio (%): 100%
Nilaparvata lugens [3]; 10 ppm spray
  Resistant insect death ratio (%): 95%
Nilaparvata lugens [3]; 100 ppm spray
  Resistant insect death ratio (%): 100%

## CC1=NNC(=O)N(/N=C/c2cccnc2)C1 [Pymetrozine, pymetrozine]
Laodelphax striatellus [2]; 10 ppm, after 6 days
  pest or weed control at 10 ppm: 30%
Myzus persicae; 1 ppm
  Insect death ratio (%): 89%

## milbemectin
Myzus persicae; 10 ppm
  Insect death ratio (%): 86%

## CSc1nc2n(Cc3ccc(Br)nc3)ccc(=O)n2n1 [Reference Example 3, 4-((6-bromopyridin-3-yl)methyl)-2-(methylthio)-[1,2,4]triazolo[1,5-a]pyrimidin-7(4H)-one, reference compound]
Laodelphax striatellus [5]; 100 ppm
  Insect death ratio (%): 21%
